Laboratory results from patent US10544149B2, “Bicyclic alkyne derivatives and uses thereof” (Agency for Science, Technology and Research, priority 2013, dated 2020).
Counter-ions that a name gives are not always drawn.

Assays:
MNK2 = MNK2 (Homo sapiens, UniProt Q9HBH9); test: MNK2 enzymatic assay; type: biochemical
[1] = tested on: eIF4e phosphorylation in Hela cell line; test: eIF4e phosphorylation inhibition in Hela cell line; type: cell-based; conditions: Homo sapiens, cellular
MNK1 = MNK1 (Homo sapiens, UniProt Q9BUB5); test: MNK1 enzymatic assay; type: biochemical
Chain of MNK1 (Q9BUB5 whole entry): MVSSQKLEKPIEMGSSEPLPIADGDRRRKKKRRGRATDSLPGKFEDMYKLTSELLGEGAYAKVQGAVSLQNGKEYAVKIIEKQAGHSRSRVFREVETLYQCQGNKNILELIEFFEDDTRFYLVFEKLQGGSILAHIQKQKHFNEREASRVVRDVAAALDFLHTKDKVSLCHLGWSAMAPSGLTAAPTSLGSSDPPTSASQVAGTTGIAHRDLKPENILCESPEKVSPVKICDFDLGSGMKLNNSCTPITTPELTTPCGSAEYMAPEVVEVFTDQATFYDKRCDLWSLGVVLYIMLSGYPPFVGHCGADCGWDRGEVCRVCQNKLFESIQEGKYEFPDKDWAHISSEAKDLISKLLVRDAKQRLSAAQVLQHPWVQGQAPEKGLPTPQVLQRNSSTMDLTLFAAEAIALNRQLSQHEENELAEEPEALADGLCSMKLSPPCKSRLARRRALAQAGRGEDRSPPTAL

Chain of MNK2 (Q9HBH9 whole entry): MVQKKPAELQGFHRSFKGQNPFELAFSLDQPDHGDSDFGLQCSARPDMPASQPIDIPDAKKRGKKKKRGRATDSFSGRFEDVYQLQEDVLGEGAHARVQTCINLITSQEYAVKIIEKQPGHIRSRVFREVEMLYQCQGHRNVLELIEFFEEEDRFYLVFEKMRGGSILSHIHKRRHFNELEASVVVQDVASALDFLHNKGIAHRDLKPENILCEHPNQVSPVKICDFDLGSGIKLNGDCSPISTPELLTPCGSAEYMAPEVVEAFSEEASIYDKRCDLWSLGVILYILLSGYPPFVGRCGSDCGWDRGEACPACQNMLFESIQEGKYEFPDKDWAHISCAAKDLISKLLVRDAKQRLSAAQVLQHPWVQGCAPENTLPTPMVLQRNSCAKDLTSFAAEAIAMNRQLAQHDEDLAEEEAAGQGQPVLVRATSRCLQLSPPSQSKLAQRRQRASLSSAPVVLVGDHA

Work on Nc1cc(C#Cc2cnc3ccc(-c4ccc(C(=O)N5CCOCC5)cc4F)nn23)ccn1 (as salt: salt) [Example 122, (4-(3-((2-aminopyridin-4-yl)ethynyl)imidazo[1,2-b]pyridazin-6-yl)-3-fluorophenyl)(morpholino)methanone formate salt] yielded a melting point of 78.2 to 79.4 °C.

With Nc1cc(C#Cc2cnn3ccc(-c4ccc(C(=O)N5CCOCC5)cc4F)nc23)ccn1 (as salt: salt) [Example 123, (4-(3-((2-aminopyridin-4-yl)ethynyl)pyrazolo[1,5-a]pyrimidin-5-yl)-3-fluorophenyl)(morpholino) methanone formic acid salt] the melting point was 57.6 to 58.9 °C.

CN1CCN(C(=O)c2ccc(-c3ccc4ncc(C#Cc5ccnc(N)c5)n4n3)cc2)CC1 [Example 76, (4-(3-((2-aminopyridin-4-yl)ethynyl)imidazo[1,2-b]pyridazin-6-yl)phenyl)(4-methylpiperazin-1-yl)methanone] showed a melting point of 120 to 122 °C.

Work on CN1CCN(C(=O)c2ccc(-c3ccc4ncc(C#Cc5ccnc(N)c5)n4n3)cc2)CC1=O [Example 77, 4-(4-(3-((2-aminopyridin-4-yl)ethynyl)imidazo[1,2-b]pyridazin-6-yl)benzoyl)-1-methylpiperazin-2-one] yielded a melting point of 193.6 to 194.6 °C.

Nc1cc(C#Cc2cnc3ccc(-c4ccc(C(=O)N5CCOCC5)c(Cl)c4)nn23)ccn1 [Example 82, (4-(3-((2-aminopyridin-4-yl)ethynyl)imidazo[1,2-b]pyridazin-6-yl)-2-chlorophenyl)(morpholino)methanone] showed a melting point of 193.7 to 194.8 °C.

Nc1cc(C#Cc2cnc3ccc(-c4ccc(C(=O)N5CCOCC5)c(C(F)(F)F)c4)nn23)ccn1 [Example 83, (4-(3-((2-aminopyridin-4-yl)ethynyl)imidazo[1,2-b]pyridazin-6-yl)-2-(trifluoromethyl)phenyl) (morpholino)methanone] showed a melting point of 258.5 to 258.9 °C.

Work on CC(=O)Nc1cc(C#Cc2cnc3ccc(-c4ccc(C(=O)N5CCN(C)C(=O)C5)cc4)nn23)ccn1 [Example 84, N-(4-((6-(4-(4-methyl-3-oxopiperazine-1-carbonyl)phenyl)imidazo[1,2-b]pyridazin-3-yl)ethynyl)pyridin-2-yl)acetamide] yielded a melting point of 258.2 to 259.5 °C.

Work on CN1CCN(C(=O)c2ccc(-c3ccc4ncc(C#Cc5ccnc6[nH]ccc56)n4n3)cc2)CC1=O [Example 85, 4-(4-(3-((1H-pyrrolo[2,3-b]pyridin-4-yl)ethynyl)imidazo[1,2-b]pyridazin-6-yl)benzoyl)-1-methylpiperazin-2-one] yielded a melting point of 207.2 to 208.2 °C.

In the case of CC(=O)Nc1cc(C#Cc2cnc3ccc(-c4ccc(C(=O)N5CCN(C)CC5)cc4)nn23)ccn1 [Example 87, N-(4-((6-(4-(4-methylpiperazine-1-carbonyl)phenyl)imidazo[1,2-b]pyridazin-3-yl)ethynyl)pyridin-2-yl)acetamide], the melting point is reported as 216.8 to 217.9 °C.

Work on Nc1cc(C#Cc2cnc3cnc(-c4ccc(C(=O)N5CCOCC5)cc4)cn23)ccn1 [Example 88, (4-(3-((2-aminopyridin-4-yl)ethynyl)imidazo[1,2-a]pyrazin-6-yl)phenyl)(morpholino)methanone] yielded a melting point of 143.5 to 144.2 °C.

O=C(c1ccc(-c2cn3c(C#Cc4ccnc5[nH]ncc45)cnc3cn2)cc1)N1CCOCC1 [Example 90, (4-(3-((1H-pyrazolo[3,4-b]pyridin-4-yl)ethynyl)imidazo[1,2-a]pyrazin-6-yl)phenyl) (morpholino)methanone] showed a melting point of 192.8 to 193.8 °C.

Compound Nc1cc(C#Cc2cnc3cnc(-c4ccc(C(=O)N5CCOCC5)c(Cl)c4)cn23)ccn1 [Example 93, (4-(3-((2-aminopyridin-4-yl)ethynyl)imidazo[1,2-a]pyrazin-6-yl)-2-chlorophenyl) (morpholino)methanone] has a melting point of 119.8 to 121.1 °C.

Compound O=C(c1ccc(-c2ccc3ncc(C#Cc4ccncc4)n3c2)cc1)N1CCOCC1 [Example 94, morpholino(4-(3-(pyridin-4-ylethynyl)imidazo[1,2-a]pyridin-6-yl)phenyl)methanone] has a melting point of 165 to 166 °C.

Work on Cc1cnccc1C#Cc1cnc2ccc(-c3ccc(C(=O)N4CCOCC4)cc3)cn12 [Example 95, (4-(3-((3-methylpyridin-4-yl)ethynyl)imidazo[1,2-a]pyridin-6-yl)phenyl) (morpholino)methanone] yielded a melting point of 99 to 104 °C.

Compound Nc1cc(C#Cc2cnc3ccc(-c4ccc(C(=O)N5CCOCC5)cc4)cn23)ccn1 [Example 96, (4-(3-((2-aminopyridin-4-yl)ethynyl)imidazo[1,2-a]pyridin-6-yl)phenyl)(morpholino)methanone] has a melting point of 133 to 138 °C.

Compound Nc1cc(C#Cc2cnc3ccc(-c4ccc(C(=O)N5CCOCC5)cc4)cn23)c2cc[nH]c2n1 [Example 098, (4-(3-((6-amino-1H-pyrrolo[2,3-b]pyridin-4-yl)ethynyl)imidazo[1,2-a]pyridin-6-yl)phenyl)(morpholino)methanone] has an IC50 (MNK2) of less than 0.5 µM, an IC50 [1] of less than 5 µM and an IC50 (MNK1) of less than 0.5 µM.

Compound O=C(c1ccc(-c2ccc3ncc(C#Cc4ccnc5[nH]ccc45)n3c2)cc1)N1CCOCC1 [Example 099, (4-(3-((1H-pyrrolo[2,3-b]pyridin-4-yl)ethynyl)imidazo[1,2-a]pyridin-6-yl)phenyl)(morpholino)methanone] has an IC50 (MNK2) of less than 0.5 µM, an IC50 [1] of less than 5 µM and an IC50 (MNK1) of less than 0.5 µM.

For CC(=O)Nc1cc(C#Cc2cnc3ccc(-c4ccc(C(=O)N5CCNCC5)cc4)cn23)ccn1 [Example 101, N-(4-((6-(4-(piperazine-1-carbonyl)phenyl)imidazo[1,2-a]pyridin-3-yl)ethynyl)pyridin-2-yl)acetamide], the IC50 (MNK2) was less than 0.5 µM, the IC50 [1] was less than 5 µM and the IC50 (MNK1) was less than 0.5 µM.

For Cc1c(N)cccc1Nc1cc(C#Cc2cnc3ccc(-c4ccc(C(=O)N5CCNCC5)cc4)cn23)ccn1 [Example 102, (4-(3-((2-(3-amino-2-methylphenylamino)pyridin-4-yl)ethynyl)imidazo[1,2-a]pyridin-6-yl)phenyl) (piperazin-1-yl)methanone], the IC50 (MNK2) was less than 0.5 µM, the IC50 [1] was less than 5 µM and the IC50 (MNK1) was less than 0.5 µM.

In the case of O=C(Nc1cc(C#Cc2cnc3ccc(-c4ccc(C(=O)N5CCNCC5)cc4)cn23)ccn1)c1ccccc1 [Example 103, (N-(4-((6-(4-(piperazine-1-carbonyl)phenyl)imidazo[1,2-a]pyridin-3-yl)ethynyl)pyridin-2-yl)benzamide)], the IC50 (MNK2) is reported as less than 0.5 µM, the IC50 [1] is reported as less than 5 µM and the IC50 (MNK1) is reported as less than 0.5 µM.

O=C(c1ccc(-c2ccc3ncc(C#Cc4ccnc5[nH]ncc45)n3c2)cc1)N1CCNCC1 [Example 104, (4-(3-((1H-pyrazolo[3,4-b]pyridin-4-yl)ethynyl)imidazo[1,2-a]pyridin-6-yl)phenyl) (piperazin-1-yl)methanone] showed an IC50 (MNK2) of less than 0.5 µM, an IC50 [1] of less than 5 µM and an IC50 (MNK1) of less than 0.5 µM.

For O=C(c1ccc(-c2ccc3ncc(C#Cc4ccnc(Nc5cccnc5)c4)n3c2)cc1)N1CCNCC1 [Example 105, piperazin-1-yl(4-(3-((2-(pyridin-3-ylamino)pyridin-4-yl)ethynyl)imidazo[1,2-a]pyridin-6-yl)phenyl)methanone], the IC50 (MNK2) was less than 0.5 µM, the IC50 [1] was less than 5 µM and the IC50 (MNK1) was less than 0.5 µM.

Work on Cc1ccccc1Nc1cc(C#Cc2cnc3ccc(-c4ccc(C(=O)N5CCNCC5)cc4)cn23)ccn1 [Example 106, piperazin-1-yl(4-(3-((2-(o-tolylamino)pyridin-4-yl)ethynyl)imidazo[1,2-a]pyridin-6-yl)phenyl)methanone] yielded an IC50 (MNK2) of less than 0.5 µM, an IC50 [1] of less than 5 µM and an IC50 (MNK1) of less than 0.5 µM.

Compound Cc1ncccc1Nc1cc(C#Cc2cnc3ccc(-c4ccc(C(=O)N5CCNCC5)cc4)cn23)ccn1 [Example 107, (4-(3-((2-(2-methylpyridin-3-ylamino)pyridin-4-yl)ethynyl)imidazo[1,2-a]pyridin-6-yl)phenyl)(piperazin-1-yl)methanone] has an IC50 (MNK2) of less than 0.5 µM, an IC50 [1] of less than 5 µM and an IC50 (MNK1) of less than 0.5 µM.

With Nc1cc(C#Cc2cnc3ccc(-c4ccc(C(=O)N5CCNCC5)cc4)cn23)ccn1 [Example 108, (4-(3-((2-aminopyridin-4-yl)ethynyl)imidazo[1,2-a]pyridin-6-yl)phenyl)(piperazin-1-yl)methanone] the IC50 (MNK2) was less than 0.5 µM, the IC50 [1] was less than 5 µM and the IC50 (MNK1) was less than 0.5 µM.

Compound O=C(c1ccc(-c2ccc3ncc(C#Cc4ccncc4)n3c2)cc1)N1CCNCC1 [Example 109, piperazin-1-yl(4-(3-(pyridin-4-ylethynyl)imidazo[1,2-a]pyridin-6-yl)phenyl)methanone] has an IC50 (MNK2) of less than 0.5 µM, an IC50 [1] of less than 5 µM and a melting point of 125 to 130 °C. The IC50 (MNK1) was less than 0.5 µM.

Nc1cc(C#Cc2cnc3ccc(-c4ccc(C(=O)N5CCNCC5)cc4)cn23)c2cc[nH]c2n1 [Example 111, (4-(3-((6-amino-1H-pyrrolo[2,3-b]pyridin-4-yl)ethynyl)imidazo[1,2-a]pyridin-6-yl)phenyl)(piperazin-1-yl)methanone] showed an IC50 (MNK2) of less than 0.5 µM, an IC50 [1] of less than 5 µM and an IC50 (MNK1) of less than 0.5 µM.

Nc1cc(C#Cc2cnn3ccc(-c4ccc(C(=O)N5CCOCC5)cc4)nc23)ccn1 [Example 117, (4-(3-((2-aminopyridin-4-yl)ethynyl)pyrazolo[1,5-a]pyrimidin-5 yl)phenyl)(morpholino)methanone] showed a melting point of 129.8 to 130.6 °C.

Work on Nc1cc(C#Cc2cnc3ccc(-c4ccc(C(=O)N5CCOCC5)cc4F)nn23)ccn1 [Example 122, (4-(3-((2-aminopyridin-4-yl)ethynyl)imidazo[1,2-b]pyridazin-6-yl)-3-fluorophenyl)(morpholino)methanone formate salt] yielded an IC50 (MNK2) of less than 0.5 µM, an IC50 [1] of less than 5 µM and an IC50 (MNK1) of less than 0.5 µM.

With Nc1cc(C#Cc2cnn3ccc(-c4ccc(C(=O)N5CCOCC5)cc4F)nc23)ccn1 [Example 123, (4-(3-((2-aminopyridin-4-yl)ethynyl)pyrazolo[1,5-a]pyrimidin-5-yl)-3-fluorophenyl)(morpholino) methanone formic acid salt] the IC50 (MNK2) was less than 0.5 µM, the IC50 [1] was less than 5 µM and the IC50 (MNK1) was less than 0.5 µM.
